Reference: patent US20220251569A1, “TREATMENT AND PREVENTION OF DISEASE MEDIATED BY WWP2” (National University of Singapore, priority 2019, published 2022)

Columns and labels:
WWP2-C = target: T1, WWP2-C (Homo sapiens, UniProt O00308); experiment: Octet RED binding assay to WWP2-C; settings: compound at 250 μM, binding measured over 120 seconds, Octet RED96e
T1 construct: GST; made in house
Experimental: (§1) The WWP2 isoforms WWP2-FL, WWP2-N and WWP2-C were expressed as a GST fusion protein in bacteria and purified using glutathione sepharose 4B resin (GE Healthcare) according to the manufacturer's instructions. Expression and purity of the expressed WWP2 proteins was analysed by Coomassie Blue staining of the gel after separation by SDS-PAGE and western blotting (WB).
(§2) Binding assays were performed using the Octet RED96e System (FortéBio Inc., Menlo Park, Calif.). WWP2-FL, WWP2-N and WWP2-C proteins were biotinylated using NHS-PEO4-biotin (Pierce). Super-streptavidin (SSA) biosensors (FortéBio Inc., Menlo Park, Calif.) were coated in a solution containing 1 μM of biotinylated protein for 4 hours at 25° C. A duplicate set of sensors were incubated in assay buffer (1× kinetics buffer of ForteBio Inc.) with 5% DMSO without protein, for use as a background binding control. Both sets of sensors were blocked with a solution of 10 ug/ml Biocytin for 5 minutes at 25° C. A negative control of 5% DMSO was also used.
(§3) Binding of samples containing the different compounds (at a concentration of 250 μM) to coated and uncoated reference sensors was measured over 120 seconds. Analysis of the data was performed using a double reference subtraction (sample and sensor references) in the FortéBio data analysis software. […]

WWP2-N = target: T2, WWP2-N (Homo sapiens, UniProt O00308); experiment: Octet RED binding assay to WWP2-N; settings: compound at 250 μM, binding measured over 120 seconds, Octet RED96e
T2 construct: GST; made in house
T2 sequence (O00308 1-335 limits assumed): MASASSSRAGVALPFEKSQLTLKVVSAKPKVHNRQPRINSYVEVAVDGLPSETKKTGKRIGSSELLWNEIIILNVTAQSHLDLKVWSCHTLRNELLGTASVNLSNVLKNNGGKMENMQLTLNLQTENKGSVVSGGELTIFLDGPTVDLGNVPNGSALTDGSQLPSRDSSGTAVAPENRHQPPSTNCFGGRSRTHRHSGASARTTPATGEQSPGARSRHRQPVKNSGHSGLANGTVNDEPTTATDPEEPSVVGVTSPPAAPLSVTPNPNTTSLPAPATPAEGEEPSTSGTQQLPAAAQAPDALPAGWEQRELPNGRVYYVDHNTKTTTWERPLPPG
Experimental: as §1, §2, §3

[1] = system: primary renal fibroblasts; experiment: Cellular fibrosis assay (ACTA2 immunostaining) in TGFβ1-stimulated primary renal fibroblasts; assay type: cell-based, mice; settings: compound 0.3 mM for 1 hour, then TGFβ1 stimulation 72 hours; fluorescence microscopy
Experimental: Primary renal fibroblasts were obtained from the renal cortex of mice. Minced renal cortex pieces (1-3 mm^3) were placed in 6 cm dishes with DMEM supplemented with 20% fetal bovine serum for less than 10 days to generate mice renal fibroblasts (P0), and passaged to P1 and P2 in DMEM supplemented with 10% fetal bovine serum for experiments. To mimic the in vivo activation of renal fibroblasts in fibrosis, cells were treated with human transforming growth factor-β1 (TGFβ1) (Sigma Aldrich, #T7039) at a concentration of 5 ng/μl for 72 hours.
To test the anti-fibrotic effect of candidate small-molecules, cells were treated with each compound (0.3 mM) for 1 hour, followed by stimulation with TGFβ1 before harvesting. After fixation with ice-cold acetone and blocking with 1% BSA for 30 min at RT, the slides were incubated with primary anti-smooth muscle a actin (ACTA2) antibody (ACTA2 is a widely recognised myofibroblast marker, indicating fibroblast activation) (Sigma-Aldrich, #A5228, 1:100) overnight at 4° C. Following washing steps, slides were incubated with Bovine Anti-Mouse IgG-CFL 488 secondary antibody (Santacruz Biotechnology, #sc-362256, 1:100) for 2 hours at RT. VectaShield Mounting Medium (Vector laboratories, #H-1200) with DAPI was used to stain the nuclei and the slides were covered by coverslip. Slides were imaged on Leica fluorescence microscope (Leica).

T1 sequence (O00308 440-870 limits assumed): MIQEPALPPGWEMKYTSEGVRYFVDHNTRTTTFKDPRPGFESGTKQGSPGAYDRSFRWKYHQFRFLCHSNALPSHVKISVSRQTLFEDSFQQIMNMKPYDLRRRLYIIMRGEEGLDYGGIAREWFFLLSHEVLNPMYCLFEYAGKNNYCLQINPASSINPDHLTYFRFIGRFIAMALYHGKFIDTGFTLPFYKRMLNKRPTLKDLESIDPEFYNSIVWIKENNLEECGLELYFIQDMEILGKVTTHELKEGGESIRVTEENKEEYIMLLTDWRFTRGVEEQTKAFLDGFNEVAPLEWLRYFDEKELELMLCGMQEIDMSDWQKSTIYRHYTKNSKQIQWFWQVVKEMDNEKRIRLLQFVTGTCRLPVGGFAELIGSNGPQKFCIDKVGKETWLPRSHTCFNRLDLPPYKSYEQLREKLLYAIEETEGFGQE

Binding level (nm) to WWP2 C isoform (WWP2-C): 0.0061 nm
Binding level (nm) to WWP2 N isoform (WWP2-N): 0.1253 nm
SMILES: COc1ccc(-n2c(=O)c3c4c(sc3n(CC(=O)NCc3ccco3)c2=O)CCC4)c(OC)c1 [EP1, 2-[11-(2,4-dimethoxyphenyl)-10,12-dioxo-7-thia-9,11-diazatricyclo[6.4.0.02.6]dodeca-1(8),2(6)-dien-9-yl]-N-(furan-2-ylmethyl)acetamide]
Anti-fibrotic response in renal fibroblasts (ACTA2 expression) [1]: reduced expression of ACTA2
